Results as given in patent US12582641B2, “Sulfur-containing compound based on glutarimide skeleton and application thereof” (SHANGHAITECH UNIVERSITY, priority 2019, dated 2026).

The compounds below were run on MM.1S cells (assay: Proliferation inhibition (IC50) in MM.1S cells, cell viability assay). Conditions: Homo sapiens, MM1.S, 72 h, read-out: IC50 (nM), proliferation inhibitory activity of MM.1S cells (half inhibitory concentration).
`O=C1CCC(N2Cc3c(SCc4ccc(CNCC56CC7CC(CC(C7)C5)C6)cc4)cccc3C2=O)C(=O)N1` (stereo not shown) [SIAIS1222085, 3-(4-((4-(((adamantan-1-ylmethyl)amino)methyl)benzyl)thio)-1-oxoisoindolin-2-yl)piperidine-2,6-dione] showed an IC50 of 0.029 nM.
With `Cc1ccc(NC(=O)NCCSc2cccc3c2CN(C2CCC(=O)NC2=O)C3=O)cc1Cl` (stereo not shown) [SIAIS269012, 1-(3-chloro-4-methylphenyl)-3-(2-((2-(2,6-dioxopiperidin-3-yl)-1-oxoisoindolin-4-yl)thio)ethyl)urea] the IC50 was 3.79 nM.
With `CN(C)CCOCCOCCSc1cccc2c1CN(C1CCC(=O)NC1=O)C2=O` (stereo not shown) [SIAIS1216195, 3-(4-((2-(2-(2-(dimethylamino)ethoxy)ethoxy)ethyl)thio)-1-oxoisoindolin-2-yl)piperidine-2,6-dione] the IC50 was 4.96 ± 0.54 nM.
For `CC1(C)[C@@H]2CC[C@@]1(C)[C@@H](NCCCCCSc1cccc3c1CN(C1CCC(=O)NC1=O)C3=O)C2` (stereo partly drawn) [SIAIS1221113, 3-(1-oxo-4-((5-(((1R,2S,4R)-1,7,7-trimethylbicyclo[2.2.1]heptan-2-yl)amino)pentyl)thio)isoindolin-2-yl)piperidine-2,6-dione], the IC50 was 0.027 nM.
Compound `CN(CCCCCCCSc1cccc2c1C(=O)N(C1CCC(=O)NC1=O)C2=O)C12CC3CC(CC(C3)C1)C2` (stereo not shown) [SIAIS1222029, 4-((7-((adamantan-1-yl)(methyl)amino)heptyl)thio)-2-(2,6-dioxopiperidin-3-yl)isoindoline-1,3-dione] has an IC50 of 0.21 nM.
Work on `O=C1CCC(N2Cc3c(SCc4ccc(CN5CCCCC5)cc4F)cccc3C2=O)C(=O)N1` (stereo not shown) [SIAIS1227175, 3-(4-((2-fluoro-4-(piperidin-1-ylmethyl)benzyl)thio)-1-oxoisoindolin-2-yl)piperidine-2,6-dione] yielded an IC50 of 0.073 nM.
Compound `O=C1CCC(N2Cc3c(SCc4ccc(CN5CCSCC5)cc4)cccc3C2=O)C(=O)N1` (stereo not shown) [SIAIS1224089, 3-(1-oxo-4-((4-(thiomorpholinomethyl)benzyl)thio)isoindolin-2-yl)piperidine-2,6-dione] has an IC50 of 0.144 nM.
Work on `O=C1CCC(N2Cc3c(SCc4ccc(CCCN5CCOCC5)cc4)cccc3C2=O)C(=O)N1` (stereo not shown) [SIAIS1227053, 3-(4-((4-(3-morpholinopropyl)benzyl)thio)-1-oxoisoindolin-2-yl)piperidine-2,6-dione] yielded an IC50 of 0.079 nM.
In the case of `O=C1CCC(N2Cc3c(SCc4ccc(CNC(C5CC5)C5CC5)cc4)cccc3C2=O)C(=O)N1` (stereo not shown) [SIAIS1227183, 3-(4-((4-(((dicyclopropylmethyl)amino)methyl)benzyl)thio)-1-oxoisoindolin-2-yl)piperidine-2,6-dione], the IC50 is reported as 0.039 nM.
With `O=C(CCCCN1CCCCC1)NCCSc1cccc2c1CN(C1CCC(=O)NC1=O)C2=O` (stereo not shown) [SIAIS1220169, N-(2-((2-(2,6-dioxopiperidin-3-yl)-1-oxoisoindolin-4-yl)thio)ethyl)-5-(piperidin-1-yl)pentanamide] the IC50 was 43 nM.
Compound `O=C1CCC(N2Cc3c(SCCCCCCCN4Cc5ccccc5C4)cccc3C2=O)C(=O)N1` (stereo not shown) [SIAIS1224033, 3-(4-((7-(isoindolin-2-yl)heptyl)thio)-1-oxoisoindolin-2-yl)piperidine-2,6-dione] has an IC50 of 0.082 nM.
With `O=C1CCC(N2Cc3c(SCCCCCCCNC4CC5(CCC5)C4)cccc3C2=O)C(=O)N1` (stereo not shown) [SIAIS1222077, 3-(1-oxo-4-((7-(spiro[3.3]heptan-2-ylamino)heptyl)thio)isoindolin-2-yl)piperidine-2,6-dione] the IC50 was 0.006 nM.
In the case of `O=C1CCC(N2Cc3c(SCc4csc(CNC5CCCC5)n4)cccc3C2=O)C(=O)N1` (stereo not shown) [SIAIS313166, 3-(4-(((2-((cyclopentylamino)methyl)thiazol-4-yl)methyl)thio)-1-oxoisoindolin-2-yl)piperidine-2,6-dione], the IC50 is reported as 7.55 ± 1.89 nM.
Compound `O=C1CCC(N2Cc3c(SCCCCCCCCN4CCC(N5CCNCC5)CC4)cccc3C2=O)C(=O)N1` (stereo not shown) [SIAIS1220019, 3-(1-oxo-4-((8-(4-(piperazin-1-yl)piperidin-1-yl)octyl)thio)isoindolin-2-yl)piperidine-2,6-dione] has an IC50 of 2.08 nM.
`CCN(CC)Cc1ccc(CSc2cccc3c2CN(C2CCC(=O)NC2=O)C3=O)cc1` (stereo not shown) [SIAIS1227055, 3-(4-((4-((diethylamino)methyl)benzyl)thio)-1-oxoisoindolin-2-yl)piperidine-2,6-dione] was tested, and the IC50 was 0.285 nM.
Work on `O=C1CCC(N2Cc3c(SCc4nc(CN5CCCCC5)cs4)cccc3C2=O)C(=O)N1` (stereo not shown) [SIAIS313170, 3-(1-oxo-4-(((4-(piperidin-1-ylmethyl)thiazol-2-yl)methyl)thio)isoindolin-2-yl)piperidine-2,6-dione] yielded an IC50 of 2.56 ± 0.56 nM.
`O=C1CCC(N2Cc3c(SCCCCCCCCN4CCCNCC4)cccc3C2=O)C(=O)N1` (stereo not shown) [SIAIS1220017, 3-(4-((8-(1,4-diazepan-1-yl)octyl)thio)-1-oxoisoindolin-2-yl)piperidine-2,6-dione] showed an IC50 of 2.77 nM.
For `O=C1CCC(N2Cc3c(SCCc4ccc(CN5CCCCC5)cc4)cccc3C2=O)C(=O)N1` (stereo not shown) [SIAIS1224161, 3-(1-oxo-4-((4-(piperidin-1-ylmethyl)phenethyl)thio)isoindolin-2-yl)piperidine-2,6-dione], the IC50 was 3.62 nM.
`CN1CCN(C2CCN(CCCCCCCCSc3cccc4c3CN(C3CCC(=O)NC3=O)C4=O)CC2)CC1` (stereo not shown) [SIAIS1220049, 3-(4-((8-(4-(4-methylpiperazin-1-yl)piperidin-1-yl)octyl)thio)-1-oxoisoindolin-2-yl)piperidine-2,6-dione] gave an IC50 of 0.26 nM.
`CCCCCSc1cccc2c1CN(C1CCC(=O)NC1=O)C2=O` (stereo not shown) [SIAIS1213195, 3-(1-oxo-4-(pentylthio)isoindolin-2-yl)piperidine-2,6-dione] was tested, and the IC50 was 1.48 ± 0.06 nM.
`O=C1CCC(N2Cc3c(SCc4ccc(CNC5CCCCC5)cc4F)cccc3C2=O)C(=O)N1` (stereo not shown) [SIAIS1227177, 3-(4-((4-((cyclohexylamino)methyl)-2-fluorobenzyl)thio)-1-oxoisoindolin-2-yl)piperidine-2,6-dione] showed an IC50 of 0.097 nM.
Work on `CC(C)(C)NCc1ccc(CSc2cccc3c2CN(C2CCC(=O)NC2=O)C3=O)cc1` (stereo not shown) [SIAIS1227107, 3-(4-((4-((tert-butylamino)methyl)benzyl)thio)-1-oxoisoindolin-2-yl)piperidine-2,6-dione] yielded an IC50 of 0.27 ± 0.07 nM.
`O=C1CCC(N2C(=O)c3cccc(SCCCCCCCN4CCCCC4)c3C2=O)C(=O)N1` (stereo not shown) [SIAIS1221033, 2-(2,6-dioxopiperidin-3-yl)-4-((7-(piperidin-1-yl)heptyl)thio)isoindoline-1,3-dione] showed an IC50 of 1.62 nM.
With `O=C1CCC(N2Cc3c(SCCCCCCCCNC45CC6CC(CC(C6)C4)C5)cccc3C2=O)C(=O)N1` (stereo not shown) [SIAIS1220087, 3-(4-((8-((adamantan-1-yl)amino)octyl)thio)-1-oxoisoindolin-2-yl)piperidine-2,6-dione] the IC50 was 0.12 nM.
`O=C1CCC(N2Cc3c(SCCCCCCCCC[S+]([O-])CCCC(F)(F)C(F)(F)F)cccc3C2=O)C(=O)N1` (stereo not shown) [SIAIS1220145, 3-(1-oxo-4-((9-((4,4,5,5,5-pentafluoropentyl)sulfinyl)nonyl)thio)isoindolin-2-yl)piperidine-2,6-dione] gave an IC50 of 4.73 nM.
With `O=C1CCC(N2Cc3c(SCc4ccc(CNC5CC6(CCC6)C5)cc4)cccc3C2=O)C(=O)N1` (stereo not shown) [SIAIS1222159, 3-(1-oxo-4-((4-((spiro[3.3]heptan-2-ylamino)methyl)benzyl)thio)isoindolin-2-yl)piperidine-2,6-dione] the IC50 was 0.05 nM.
`O=C1CCC(N2Cc3c(SCCc4ccc(CCNC56CC7CC(CC(C7)C5)C6)cc4)cccc3C2=O)C(=O)N1` (stereo not shown) [SIAIS1224121, 3-(4-((4-(2-((adamantan-1-yl)amino)ethyl)phenethyl)thio)-1-oxoisoindolin-2-yl)piperidine-2,6-dione] showed an IC50 of 0.48 ± 0.05 nM.
For `O=C1CCC(N2Cc3c(SCCCc4ccc(CN5CCOCC5)cc4)cccc3C2=O)C(=O)N1` (stereo not shown) [SIAIS1227075, 3-(4-((3-(4-(morpholinomethyl)phenyl)propyl)thio)-1-oxoisoindolin-2-yl)piperidine-2,6-dione], the IC50 was 0.499 nM.
For `O=C1CCC(N2Cc3c(SCCCCCCCNC4CCC4)cccc3C2=O)C(=O)N1` (stereo not shown) [SIAIS1222115, 3-(4-((7-(cyclobutylamino)heptyl)thio)-1-oxoisoindolin-2-yl)piperidine-2,6-dione], the IC50 was 0.182 nM.
`O=C1CCC(N2C(=O)c3cccc(SCCc4ccc(CNC5CCCCC5)cc4)c3C2=O)C(=O)N1` (stereo not shown) [SIAIS1227019, 4-((4-((cyclohexylamino)methyl)phenethyl)thio)-2-(2,6-dioxopiperidin-3-yl)isoindoline-1,3-dione] showed an IC50 of 34.3 nM.
`O=C1CCC(N2Cc3c(SCCCCCCNCC4CCCCC4)cccc3C2=O)C(=O)N1` (stereo not shown) [SIAIS1222147, 3-(4-((6-((cyclohexylmethyl)amino)hexyl)thio)-1-oxoisoindolin-2-yl)piperidine-2,6-dione] gave an IC50 of 0.083 nM.
In the case of `CC(C)N(C(=O)CCCCCCSc1cccc2c1CN(C1CCC(=O)NC1=O)C2=O)C(C)C` (stereo not shown) [SIAIS1220117, 7-((2-(2,6-dioxopiperidin-3-yl)-1-oxoisoindolin-4-yl)thio)-N,N-diisopropylheptanamide], the IC50 is reported as 0.07 nM.
For `CN(CCCCCCCSc1cccc2c1CN(C1CCC(=O)NC1=O)C2=O)C1CC1` (stereo not shown) [SIAIS1222103, 3-(4-((7-(cyclopropyl(methyl)amino)heptyl)thio)-1-oxoisoindolin-2-yl)piperidine-2,6-dione], the IC50 was 0.25 nM.
For `CC1CN(CCCCCCCCSc2cccc3c2CN(C2CCC(=O)NC2=O)C3=O)CC(C)N1` (stereo not shown) [SIAIS1220057, 3-(4-((8-(3,5-dimethylpiperazin-1-yl)octyl)thio)-1-oxoisoindolin-2-yl)piperidine-2,6-dione], the IC50 was 0.77 nM.
`O=C1CCC(N2Cc3c(SCCCCCCCCN4CCCCC4=O)cccc3C2=O)C(=O)N1` (stereo not shown) [SIAIS264019, 3-(1-oxo-4-((8-(2-oxopiperidin-1-yl)octyl)thio)isoindolin-2-yl)piperidine-2,6-dione] gave an IC50 of 0.13 nM.
With `O=C1CCC(N2Cc3c(SCc4ccc(CN5CCOCC5)cc4)cccc3C2=O)C(=O)N1` (stereo not shown) [SIAIS1220167, 3-(4-((4-(morpholinomethyl)benzyl)thio)-1-oxoisoindolin-2-yl)piperidine-2,6-dione] the IC50 was 0.25 ± 0.01 nM.
In the case of `O=C1CCC(N2Cc3c(SCCCCCCCCCSCCCC(F)(F)C(F)(F)F)cccc3C2=O)C(=O)N1` (stereo not shown) [SIAIS1220131, 3-(1-oxo-4-((9-((4,4,5,5,5-pentafluoropentyl)thio)nonyl)thio)isoindolin-2-yl)piperidine-2,6-dione], the IC50 is reported as 9.71 nM.
